Laboratory results from US20230121721A1, “MONOACYLGLYCEROL LIPASE INHIBITORS” (STICHTING HET NEDERLANDS KANKER INSTITUUT - ANTONI VAN …, priority 2020, published 2023).

molecular target: T1, hMAGL (MAGL-overexpressing membrane preparations from transiently transfected HEK293T cells) (Homo sapiens, UniProt Q99685); test: MAGL activity assay (2-AG hydrolysis, glycerol coupled to Amplifu Red fluorescence); type: biochemical; settings: hMAGL-overexpressing HEK293T membranes, 25 μM 2-AG substrate, 20 min. inhibitor incubation
T1 construct: expressed in transfected cells; host or cells: HEK293T (transient transfection), membrane preparations
T1 sequence (Q99685 1-303): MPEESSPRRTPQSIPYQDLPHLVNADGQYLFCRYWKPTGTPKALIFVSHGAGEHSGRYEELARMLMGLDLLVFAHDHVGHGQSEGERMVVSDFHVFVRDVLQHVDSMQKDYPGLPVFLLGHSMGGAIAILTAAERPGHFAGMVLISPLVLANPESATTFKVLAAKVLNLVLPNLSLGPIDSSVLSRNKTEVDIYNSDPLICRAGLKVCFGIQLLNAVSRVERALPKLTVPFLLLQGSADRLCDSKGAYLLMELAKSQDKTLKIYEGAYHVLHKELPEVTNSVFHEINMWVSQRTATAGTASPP
Excerpt: The MAGL activity assay is based on the production of glycerol from 2-arachidonoylglycerol (2-AG) hydrolysis by MAGL-overexpressing membrane preparations from transiently transfected HEK293T cells, as previously reported in van der Wel T et al., “A natural substrate-based fluorescence assay for inhibitor screening on diacylglycerol lipase”, J Lipid Res., 2015, 56(4), 927-35. The produced glycerol is coupled to the oxidation of commercially available Amplifu™ Red (Sigma-Aldrich Chemie N.V., Zwijndrecht, Netherlands) via a multi-enzyme cascade, resulting in a fluorescent signal from the dye resorufin.
Standard assays were performed in HEMNB buffer (50 mM HEPES pH 7.4, 1 mM EDTA, 5 mM MgCl2, 100 mM NaCl, 0.5% (w/v) BSA) in black, flat bottom 96-wells plates. Final protein concentration of membrane preparations from overexpressing hMAGL HEK293T cells was 1.5 μg/mL (0.3 μg per well). Inhibitors were added from 40× concentrated DMSO stocks. […] Final assay concentrations: 0.2 U/mL GK, GPO and HRP, 0.125 mM ATP, 10 μM Amplifu™ Red, 25 μM 2-AG, 5% DMSO, 0.5% ACN in a total volume of 200 μL.
For IC50 determination, the MAGL-overexpressing membranes were incubated with different inhibitor concentrations. Slopes of corrected fluorescence in time were determined in the linear interval of t=10 to t=35 min and then scaled to the corrected positive control of hMAGL-overexpressing membranes treated with vehicle (DMSO) as a 100% activity reference point. The data was exported to GraphPad Prism 5.0 and analysed in a non-linear dose-response analysis with variable slope.

IC50 [nM]	Compound
759	C[C@H]1[C@H](C)N(c2cccc(Cl)c2)CCN1C(=O)c1ccc([S+]([O-])CC(=O)c2ccc(F)c(F)c2)c(Cl)c1 (mixture of isomers) [Example 94, (±) 2-((2-Chloro-4-(4-(3-chlorophenyl)-trans-2,3-dimethylpiperazine-1-carbonyl)phenyl)sulfinyl)-1-(3,4-difluorophenyl)ethan-1-one]
7.41	C[C@H]1[C@H](C)N(c2cccc(Cl)c2)CCN1C(=O)c1ccc([S+]([O-])CC(=O)C(F)(F)F)c(Cl)c1 (mixture of isomers) [Example 73, (±) 3-((2-Chloro-4-(4-(3-chlorophenyl)-trans-2,3-dimethylpiperazine-1-carbonyl)phenyl)sulfinyl)-1,1,1-trifluoropropan-2-one]
87.1	C[C@H]1[C@H](C)N(c2cccc(Cl)c2)CCN1C(=O)c1ccc([S+]([O-])CC(=O)c2ccncn2)c(Cl)c1 (mixture of isomers) [Example 100, (±) 2-((2-Chloro-4-(4-(3-chlorophenyl)-trans-2,3-dimethylpiperazine-1-carbonyl)phenyl)sulfinyl)-1-(pyrimidin-4-yl)ethan-1-one]
14.8	CCOC(=O)C[S+]([O-])c1ccc(C(=O)N2CCN(c3cccc(Cl)c3)[C@H](C)[C@H]2C)cc1C(F)(F)F (mixture of isomers) [Example 107, (±) Ethyl 2-((4-(4-(3-chlorophenyl)-trans-2,3-dimethylpiperazine-1-carbonyl)-2-(trifluoromethyl)phenyl)sulfinyl)acetate]
2.95	C[C@@H]1[C@@H](C)N(c2cccc(Cl)c2)CCN1C(=O)c1ccc([S+]([O-])CC(=O)OC2CCCCC2)c(Cl)c1 (mixture of isomers) [Example 60, (±) Cyclohexyl 2-((2-chloro-4-(4-(3-chlorophenyl)-trans-2,3-dimethylpiperazine-1-carbonyl)phenyl)sulfinyl)acetate]
9.12	COCCOC(=O)C[S+]([O-])c1ccc(C(=O)N2CCN(c3cccc(Cl)c3)[C@@H](C)[C@@H]2C)cc1Cl (mixture of isomers) [Example 65, (±) 2-Methoxyethyl 2-((2-chloro-4-(4-(3-chlorophenyl)-trans-2,3-dimethylpiperazine-1-carbonyl)phenyl)sulfinyl)acetate]
380	Cc1cnc(C(=O)C[S+]([O-])c2ccc(C(=O)N3CCN(c4cccc(Cl)c4)[C@@H](C)[C@@H]3C)cc2Cl)o1 (mixture of isomers) [Example 76, (±) 2-((2-Chloro-4-(4-(3-chlorophenyl)-trans-2,3-dimethylpiperazine-1-carbonyl)phenyl)sulfinyl)-1-(5-methyloxazol-2-yl)ethan-1-one]
1620	C[C@H]1[C@H](C)N(c2cccc(Cl)c2)CCN1C(=O)c1ccc([S+]([O-])CC(=O)c2ccccc2F)c(Cl)c1 (mixture of isomers) [Example 95, (±) 2-((2-Chloro-4-(4-(3-chlorophenyl)-trans-2,3-dimethylpiperazine-1-carbonyl)phenyl)sulfinyl)-1-(2-fluorophenyl)ethan-1-one]
339	CCOC(=O)CS(=O)(=O)c1ccc(C(=O)N2CCN(c3cccc(Cl)c3)[C@H](C)[C@H]2C)cc1Cl (racemic) [Example 53, (±) Ethyl 2-((2-chloro-4-(4-(3-chlorophenyl)-trans-2,3-dimethylpiperazine-1-carbonyl)phenyl)sulfonyl)acetate]
3.89	CCC(C)OC(=O)C[S+]([O-])c1ccc(C(=O)N2CCN(c3cccc(Cl)c3)[C@H](C)[C@H]2C)cc1Cl (mixture of isomers) [Example 57, (±) sec-Butyl 2-((2-chloro-4-(4-(3-chlorophenyl)-trans-2,3-dimethylpiperazine-1-carbonyl)phenyl)sulfinyl)acetate]
1150	CCOC(=O)CC(=O)c1ccc(C(=O)N2CCN(c3cccc(Cl)c3)[C@H](C)[C@H]2C)cc1Cl (racemic) [Example 55, (±) Ethyl 3-(2-chloro-4-(4-(3-chlorophenyl)-trans-2,3-dimethylpiperazine-1-carbonyl)phenyl)-3-oxopropanoate]
> 10000	C[C@H]1[C@H](C)N(c2cccc(Cl)c2)CCN1C(=O)c1ccc([S+]([O-])CC(=O)c2cccc(F)c2)c(Cl)c1 (mixture of isomers) [Example 87, (±) 2-((2-Chloro-4-(4-(3-chlorophenyl)-trans-2,3-dimethylpiperazine-1-carbonyl)phenyl)sulfinyl)-1-(3-fluorophenyl)ethan-1-one]
20.9	CCOC(=O)C[S+]([O-])c1ccc(C(=O)N2CCN(c3cncc(Cl)c3)[C@@H](C)[C@@H]2C)cc1Cl (mixture of isomers) [Example 68, (±) Ethyl 2-((2-chloro-4-(-4-(5-chloropyridin-3-yl)-trans-2,3-dimethylpiperazine-1-carbonyl)phenyl)sulfinyl)acetate]

Further lines, the compound ahead of its results:

Compound	IC50 [nM]
C[C@H]1[C@H](C)N(c2cccc(Cl)c2)CCN1C(=O)c1ccc(SCC(=O)C(F)(F)F)c(Cl)c1 (racemic) [Example 72, (±) 3-((2-Chloro-4-(4-(3-chlorophenyl)-trans-2,3-dimethylpiperazine-1-carbonyl)phenyl)thio)-1,1,1-trifluoropropan-2-one]	20.9
CCC(F)(F)C(=O)C[S+]([O-])c1ccc(C(=O)N2CCN(c3cccc(Cl)n3)[C@@H](C)[C@@H]2C)cc1Cl (mixture of isomers) [Example 82, (±) 1-((2-Chloro-4-(4-(6-chloropyridin-2-yl)-trans-2,3-dimethylpiperazine-1-carbonyl)phenyl)sulfinyl)-3,3-difluoropentan-2-one]	0.123
CCOC(=O)C[S+]([O-])c1ccc(C(=O)N2CCN(c3cccc(Cl)c3)CC2C)cc1F (stereo not drawn) [Example 44, Ethyl 2-((4-(4-(3-chlorophenyl)-2-methylpiperazine-1-carbonyl)-2-fluorophenyl)sulfinyl)acetate]	27.5
CCOC(=O)C[S+]([O-])c1ccc(CN2CCN(c3cccc(Cl)c3)[C@H](C)[C@H]2C)cc1Cl (mixture of isomers) [Example 54, (±) Ethyl 2-((2-chloro-4-((4-(3-chlorophenyl)-trans-2,3-dimethylpiperazin-1-yl)methyl)phenyl)sulfinyl)acetate]	6.17
CCOC(=O)C[S+]([O-])c1ccc(C(=O)N2CCN(c3cccc([N+](=O)[O-])c3)CC2)cc1[N+](=O)[O-] (stereo not drawn) [Example 19, Ethyl 2-((2-nitro-4-(4-(3-nitrophenyl)piperazine-1-carbonyl)phenyl)sulfinyl)acetate]	2570
CCOC(=O)CSc1ccc(C(=O)N2CCN(c3cccc(C)c3)[C@@H](C)C2)cc1[N+](=O)[O-] [Example 5, Ethyl (S)-2-((4-(3-methyl-4-(m-tolyl)piperazine-1-carbonyl)-2-nitrophenyl)thio)acetate]	> 10000
C[C@H]1[C@H](C)N(c2cccc(Cl)c2)CCN1C(=O)c1ccc([S+]([O-])CC(=O)c2ccc(C#N)cn2)c(Cl)c1 (mixture of isomers) [Example 105, (±) 6-(2-((2-Chloro-4-(4-(3-chlorophenyl)-trans-2,3-dimethylpiperazine-1-carbonyl)phenyl)sulfinyl)acetyl)nicotinonitrile]	10
CCOC(=O)C[S+]([O-])c1ccc(C(=O)N2CCN(c3cccc(Cl)c3)C(C)(C)C2)cc1F (stereo not drawn) [Example 47, Ethyl 2-((4-(4-(3-chlorophenyl)-3,3-dimethylpiperazine-1-carbonyl)-2-fluorophenyl)sulfinyl)acetate]	46.8
C[C@H]1[C@H](C)N(c2cccc(Cl)c2)CCN1C(=O)c1ccc([S+]([O-])CC(=O)c2ccc(F)c(C(F)(F)F)c2)c(Cl)c1 (mixture of isomers) [Example 92, (±) 2-((2-Chloro-4-(4-(3-chlorophenyl)-trans-2,3-dimethylpiperazine-1-carbonyl)phenyl)sulfinyl)-1-(4-fluoro-3-(trifluoromethyl)phenyl)ethan-1-one]	> 10000
CCOC(=O)C[S+]([O-])c1ccc(C(=O)N2CCN(c3cccc(C)c3)[C@@H](C)C2)cc1[N+](=O)[O-] (stereo partly drawn) [Example 2, Ethyl 2-((4-((S)-3-methyl-4-(m-tolyl)piperazine-1-carbonyl)-2-nitrophenyl)sulfinyl)acetate]	269
CCC(F)(F)C(=O)C[S+]([O-])c1ccc(C(=O)N2CCN(c3cc(Cl)ccn3)[C@@H](C)[C@@H]2C)cc1Cl (mixture of isomers) [Example 84, (±) 1-((2-Chloro-4-(4-(4-chloropyridin-2-yl)-trans-2,3-dimethylpiperazine-1-carbonyl)phenyl)sulfinyl)-3,3-difluoropentan-2-one]	2.82
